Test results: US20150218534A1, “MODIFIED DNA POLYMERASE” (TOYOBO CO., LTD., priority 2012, published 2015)

Assays:
Type in all cases: biochemical
[1] = system: bisulfite-treated human genomic DNA (MINT1, RAR, THBS1, MINT31); experiment: PCR amplification of bisulfite-treated DNA; settings: 40 cycles (FIG. 12)
Method: Using bisulfite-treated DNA as a template and various primers, the difference in PCR amplification was compared. For comparison, KOD mutant (Y7A/V93K) and KOD (wild-type), each mixed with 1 μg of a KOD antibody per U of the enzyme, and Taq DNA polymerase mixed with an antibody (a mixture of equal amounts of Taq DNA polymerase (produced by Toyobo Co. Ltd.) and Anti-Taq High (produced by Toyobo Co. Ltd.)) were used.
The bisulfite-treated DNA used was human genomic DNA (produced by Roche) that had been treated with a MethylCode Bisulfite Conversion Kit of Invitrogen.
For PCR with the KOD mutant (Y7A/V93K) and PCR with the KOD, a buffer, MgSO4, and dNTPs included in KOD-Plus-Ver. 2 (produced by Toyobo Co. Ltd.) were used. 50 μl of individual reaction solutions containing 1× PCR buffer, 1.5 mM MgSO4, dNTPs (dATP, dTTP, dCTP, dGTP) in an amount of 0.2 mM, primers (SEQ ID NOs: 42 and 43 for amplification of MINT1; SEQ ID NOs: 44 and 45for amplification of RAR; SEQ ID NOs: 46 and 47 for amplification of THBS1; SEQ ID NOs: 48 and 49 for amplification of MINT31) in an amount of 15 pmol, 1 μl of bisulfite-treated DNA extract, and 1 U of each respective enzyme mixed with the antibody were used. PCR was performed using a GeneAmp PCR system 9700 (Applied Biosystems) on the following schedule: preliminary reaction at 94° C. for 2 minutes, followed by 40 cycles, each cycle consisting of 98° C. for 10 seconds, 55° C. for 15 seconds, and 68° C. for 1 minute.
For PCR with the Taq DNA polymerase, 50 μl of a reaction solution containing 1× buffer included in Blend Taq (product of Toyobo), dNTPs (dATP, […], dCTP, dGTP) in an amount of 0.2 mM, primers in an amount of 15 pmol (the same as above), 1 μl of bisulfite-treated DNA extract, and 2.5 U of the enzyme mixed with the antibody was used. […]
(§1) After the completion of each individual reaction, each of the resulting reaction solutions was analyzed using a DNA-1000 kit for MultiNA (produced by Shimadzu Corporation) to confirm amplified DNA fragments.

[2] = system: 1.3 kbp, 2.8 kbp, and 3.6 kbp of human β-globin; experiment: Amplification of long-chain DNA in PCR using dUTP; settings: 1.3, 2.8, 3.6 kbp; 100% dUTP (FIGS. 9 and 10)
How it was run: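 Enzymes (1 U, premixed with KOD antibody) amplified 1.3, 2.8 and 3.6 kbp β-globin from 10 ng human genomic DNA with 2 mM dNTPs having dUTP in place of dTTP, 1.5 mM MgSO4, 35 cycles (98° C. 10 s, 65° C. 30 s, 68° C. ~1 min/kbp). Taq control: 2.5 U, 94° C. denaturation. Yield judged by ethidium-stained agarose gel.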

Psychrobacter DNA = experiment: PCR amplification using inosine-containing primers; settings: for amplification with inosine-containing primers: primers 75 pmol or 150 pmol, 35 cycles (FIG. 11)
Method: Using inosine-containing primers, the difference in PCR amplification was compared. For comparison, KOD mutants and KOD (wild-type), each mixed with 1 μg of a KOD antibody per U of the enzyme, and Taq DNA polymerase mixed with an antibody (a mixture of equal amounts of Taq DNA polymerase (produced by Toyobo Co. Ltd.) and Anti-Taq High (produced by Toyobo Co. Ltd.)) were used.
For PCR with the KOD mutants and PCR with the KOD, a buffer, MgSO4, and dNTPs included in KOD-Plus-Ver. 2 (produced by Toyobo Co. Ltd.) were used. 50 μl of individual reaction solutions containing 1× PCR buffer, 1.5 mM MgSO4, dNTPs (dATP, dTTP, dCTP, dGTP) in an amount of 0.2 mM, primers (SEQ ID NOs: 40 and 41) in an amount of 75 pmol or 150 pmol, 100 ng of Psychrobacter DNA, and 1 U of each respective enzyme mixed with the antibody were used. PCR was performed using a GeneAmp PCR system 9700 (Applied Biosystems) on the following schedule: preliminary reaction at 94° C. for 2 minutes, followed by 35 cycles, each cycle consisting of 98° C. for 10 seconds, 54° C. for 10 seconds, and 68° C. for 1 minute.
For PCR with the Taq DNA polymerase, 50 μl of a reaction solution containing 1× buffer included in Blend Taq (product of Toyobo), dNTPs (dATP, […], dCTP, dGTP) in an amount of 0.2 mM, primers in an amount of 75 pmol or 150 pmol (the same as above), 100 ng of Psychrobacter DNA, and 2.5 U of the enzyme mixed with the antibody was used. PCR was performed using a GeneAmp PCR system 9700 (Applied Biosystems) on the following schedule: preliminary reaction at 94° C. for 2 minutes, followed by 35 cycles, each cycle consisting of 94° C. for 30 seconds, 54° C. for 30 seconds, and 68° C. for 1 minute.
as §1

[3] = system: human genomic DNA (about 1.3 kb) with dUTP added; experiment: Evaluation of uracil (dUTP) sensitivity by PCR with dUTP added to the reaction; settings: addition of 0.5 μM of dUTP
Method: The uracil sensitivity of the modified DNA polymerase of the present invention can be evaluated by PCR. For example, a dUTP solution is added at a final concentration of 0.5 μM to 200 μM to a common PCR reaction solution containing DNA as a template, a buffer, magnesium, dNTPs, primers, and a DNA polymerase to be evaluated, and thermal cycling is performed. After the reaction, the presence or absence of PCR products is confirmed by ethidium bromide-stained agarose electrophoresis, and the uracil sensitivity can be evaluated by the concentration of accepted dUTP. With a DNA polymerase having high uracil sensitivity, the extension reaction is inhibited by the addition of a small amount of dUTP, and PCR products cannot be confirmed. With a DNA polymerase having low uracil sensitivity, gene amplification by PCR can be confirmed without problem, even if a high concentration of dUTP is added. The modified DNA polymerase with low uracil sensitivity in the present invention refers to a DNA polymerase such that when optimum thermal cycling is performed using any primers and DNA as a template in a reaction buffer optimum for the enzyme, even if a high concentration of dUTP is added, an extension reaction is not inhibited and PCR products can be confirmed, compared to wild-type DNA polymerase, which has no mutation.
More specifically, 10× PCR buffer included in KOD-Plus-Ver. 2 (produced by Toyobo Co. Ltd.) or 10× PCR buffer included in Pfu DNA Polymerase (produced by Agilent) is used; dUTP (produced by Roche) is added to 50 μl of individual reaction solutions containing 1× PCR buffer, 1.5 mM MgSO4, dNTPs (dATP, dTTP, dCTP, and dGTP) in an amount of 0.2 mM, primers represented by SEQ ID NOs: 25 and 26 in an amount of 15 pmol for amplifying about 1.3 kb, 10 ng of human genomic DNA (produced by Roche), and 1 U of each respective enzyme, to final concentrations of 0.5, 5, 50, 100, and 200 μM. PCR is performed using a GeneAmp PCR system 9700 (Applied Biosystems) on the following schedule; preliminary reaction at 94° C. for 30 seconds, followed by 30 cycles, each cycle consisting of 98° C. for 10 seconds, 65° C. for 30 seconds, and 68° C. for 1 minute and 30 seconds. After the completion of each individual reaction, 5 μl of each of the resulting reaction solutions is subjected to agarose electrophoresis, followed by ethidium bromide staining. The uracil sensitivity can be evaluated by confirming amplified DNA fragments of about 1.3 kb under ultraviolet irradiation.
PCR was performed by the following method to evaluate uracil sensitivity. For PCR, components included in KOD-Plus-Ver. 2 (produced by Toyobo Co. Ltd.) were used. dUTP (produced by Roche) was added to 50 μl of individual reaction solutions containing 1× PCR buffer, 1.5 mM MgSO4, dNTPs (dATP, dTTP, dCTP, dGTP) in an amount of 0.2 mM, primers represented by SEQ ID NOs: 25 and 26 in an amount of 15 pmol for amplifying about 1.3 kb, 10 ng of human genomic DNA (produced by Roche), and 1 U of each respective enzyme, to final concentrations of 0.5, 5, 50, 100, and 200 μM. PCR was performed using a GeneAmp PCR system 9700 (produced by Applied Biosystems) on the following schedule: preliminary reaction at 94° C. for 30 seconds, followed by 30 cycles, each cycle consisting of 98° C. for 10 seconds, 65° C. for 30 seconds, and 68° C. for 1 minute and 30 seconds. After the completion of each individual reaction, 5 μl of each of the resulting reaction solutions was subjected to agarose electrophoresis, followed by ethidium bromide staining. Under ultraviolet irradiation, amplified DNA fragments of about 1.3 kb were confirmed. FIGS. 3, 4, 7, and 8 show the results.

## Taq DNA polymerase: Taq DNA polymerase produced by Toyobo Co. Ltd. mixed with Anti-Taq High, used as control [reference compound]
[1]
  amplification of bisulfite-treated DNA: stable amplification was confirmed
[2]
  amount of amplification of long-chain DNA with dUTP: cannot be amplified
Psychrobacter DNA; 75 pmol or 150 pmol tested
  amount of inosine-containing primers at which amplification was observed: 150 pmol
Psychrobacter DNA
  amplification with inosine-containing primers: stable amplification was confirmed

B1: KOD (wild-type): wild-type DNA polymerase from Thermococcus kodakaraensis (KOD) (protein, listed as Thermococcus kodakaraensis)
chain: MILDTDYITEDGKPVIRIFKKENGEFKIEYDRTFEPYFYALLKDDSAIEEVKKITAERHGTVVTVKRVEKVQKKFLGRPVEVWKLYFTHPQDVPAIRDKIREHPAVIDIYEYDIPFAKRYLIDKGLVPMEGDEELKMLAFDIETLYHEGEEFAEGPILMISYADEEGARVITWKNVDLPYVDVVSTEREMIKRFLRVVKEKDPDVLITYNGDNFDFAYLKKRCEKLGINFALGRDGSEPKIQRMGDRFAVEVKGRIHFDLYPVIRRTINLPTYTLEAVYEAVFGQPKEKVYAEEITTAWETGENLERVARYSMEDAKVTYELGKEFLPMEAQLSRLIGQSLWDVSRSSTGNLVEWFLLRKAYERNELAPNKPDEKELARRRQSYEGGYVKEPERGLWENIVYLDFRSLYPSIIITHNVSPDTLNREGCKEYDVAPQVGHRFCKDFPGFIPSLLGDLLEERQKIKKKMKATIDPIERKLLDYRQRAIKILANSYYGYYGYARARWYCKECAESVTAWGREYITMTIKEIEEKYGFKVIYSDTDGFFATIPGADAETVKKKAMEFLKYINAKLPGALELEYEGFYKRGFFVTKKKYAVIDEEGKITTRGLEIVRRDWSEIAKETQARVLEALLKDGDVEKAVRIVKEVTEKLSKYEVPPEKLVIHEQITRDLKDYKATGPHVAVAKRLAARGVKIRPGTVISYIVLKGSGRIGDRAIPFDEFDPTKHKYDAEYYIENQVLPAVERILRAFGYRKEDLRYQKTRQVGLSAWLKPKGT
[1]
  amplification of bisulfite-treated DNA: not amplified
Psychrobacter DNA
  amplification with inosine-containing primers: not amplified
[3]
  PCR products on addition of dUTP: no PCR products were confirmed
